Measurements published in US8916702B2 (priority 2012, dated 2014).
Where two headings read alike, the source gives them in different places.

System: HCV pseudoparticles (genotype 1a HCV E1 and E2 envelope, H77C isolate)
Test: microbe, parasite or virus in culture
Assay type: cell-based
Details: Hepatitis C virus
[1] = Huh-7, 48 h, read-out: Activity (EC50 class), HCV pseudoparticle infection of Huh7 cells, luciferase 2 days after infection, EC50 expressed as class A/B
[2] = Huh-7, 48 h, read-out: Activity (EC50 class), HCV pseudoparticles, Huh7 cells, luciferase 2 days after infection, average of duplicates
[3] = Huh-7, read-out: Activity (EC50 class), HCV pseudoparticles (genotype 1a, H77C) in Huh7 cells, EC50 expressed as class A/B
[4] = Huh-7, 48 h, HCV pseudoparticle infection of Huh7 cells, luciferase 2 days after infection, average of duplicates
[5] = Huh-7, 48 h, HCV pseudoparticles (genotype 1a, H77C) in Huh7 cells, average of duplicate, luciferase 2 days after infection

| Structure (SMILES) | EC50 [1] [nM] | EC50 [3] [nM] | other results |
| --- | --- | --- | --- |
| O=C1CC(NC(=O)C(=O)NC[C@H](NC(=O)c2ccc(Nc3nc(NC4(c5ccc(Cl)cc5)CC4)nc(OCC(F)(F)F)n3)cc2)C(=O)O)CCN1 (stereo partly drawn) [Compound 1082] | 0.01 to 10 |  |  |
| COC(=O)[C@H](CNC(=O)C(=O)Nc1cccc(-n2cnnc2)c1)NC(=O)c1ccc(Nc2nc(NC3(c4ccc(Cl)cc4)CC3)nc(OCC(F)(F)F)n2)cc1 [Compound 3729] |  |  | EC50 [2]: 0.01 to 10 nM |
| COC(=O)[C@@H](CCNC(=O)C(=O)Nc1cccc(-c2ccnc(C)n2)c1)NC(=O)c1ccc(Nc2nc(NC3(c4ccc(Cl)cc4)CC3)nc(OCC(F)(F)F)n2)cc1 [Compound 3583] |  | 0.01 to 10 |  |
| CCc1nccn1CC1(CNC(=O)C(=O)NCC[C@@H](NC(=O)c2ccc(Nc3nc(NC4(c5ccc(Cl)cc5)CC4)nc(OCC(F)(F)F)n3)cc2)C(=O)OC)CC1 [Compound 1386] | 0.01 to 10 |  | EC50 [4]: 2.76 nM |
| CC1CCCC(NC(=O)C(=O)NCC[C@H](NC(=O)c2ccc(Nc3nc(NC4(c5ccc(Cl)cc5)CC4)nc(OCC(F)(F)F)n3)cc2)C(=O)O)C1 (stereo partly drawn) [Compound 1125] | 0.01 to 10 |  |  |
| O=C(NCC1CC1)C(=O)NCC1(CNC(=O)c2ccc(Nc3nc(NC4(c5ccc(Cl)cc5)CC4)nc(OCC(F)(F)F)n3)cc2)CC1 [Compound 1493] | 0.01 to 10 |  |  |
| O=C(NCc1cccnc1)C(=O)NC[C@@H](NC(=O)c1ccc(Nc2nc(NC3(c4ccc(Cl)cc4)CC3)nc(OCC(F)(F)F)n2)cc1)C(=O)O [Compound 1043] | 0.01 to 10 |  |  |
| COC(=O)[C@H](CCNC(=O)C(=O)Nc1ccc(N2CCN(Cc3ccccc3)CC2)cc1)NC(=O)c1ccc(Nc2nc(NC3(c4ccc(Cl)cc4)CC3)nc(OCC(F)(F)F)n2)cc1 [Compound 3131] |  | 0.01 to 10 |  |
| CCN(CC)CCNC(=O)c1ccc(NC(=O)C(=O)NC/C(=N/C(=O)c2ccc(Nc3nc(NC4(c5ccc(Cl)cc5)CC4)nc(OCC(F)(F)F)n3)cc2)C(=O)O)cc1 [Compound 3157] |  | 0.01 to 10 |  |
| O=C(NC[C@H](NC(=O)c1ccc(Nc2nc(NC3(c4ccc(Cl)cc4)CC3)nc(OCC(F)(F)F)n2)cc1)C(=O)O)C(=O)Nc1cccc(F)c1 [Compound 1357] | 0.01 to 10 |  |  |
| COc1ccc(NC(=O)C(=O)NCC(C)(C)CNC(=O)c2ccc(Nc3nc(NC4(c5ccc(Cl)cc5)CC4)nc(OCC(F)(F)F)n3)cc2)c(OC)c1 [Compound 3067] |  | 0.01 to 10 |  |
| O=C(NC[C@H](NC(=O)c1ccc(Nc2nc(NC3(c4ccc(Cl)cc4)CC3)nc(OCC(F)(F)F)n2)cc1)C(=O)O)C(=O)Nc1cccc(-c2ncc[nH]2)c1 [Compound 3765] |  |  | EC50 (Huh-7, 48 h, HCV pseudoparticles, Huh7 cells, luciferase 2 days after infection, average of duplicates): 0.68 nM; EC50 [2]: 0.01 to 10 nM |
| COC(=O)[C@H](CNC(=O)C(=O)Nc1ccc(OC(F)F)cc1)NC(=O)c1ccc(Nc2nc(NC3(c4ccc(Cl)cc4)CC3)nc(OCC(F)(F)F)n2)cc1 [Compound 3215] |  | 0.01 to 10 |  |
| COC(=O)[C@H](CCNC(=O)C(=O)NCC1(C2CCCCC2)CC1)NC(=O)c1ccc(Nc2nc(NC3(c4ccc(Cl)cc4)CC3)nc(OCC(F)(F)F)n2)cc1 [Compound 1203] | 0.01 to 10 |  |  |
| CC(C)(CNC(=O)C(=O)Nc1ccccc1Cl)CNC(=O)c1ccc(Nc2nc(NC3(c4ccc(Cl)cc4)CC3)nc(OCC(F)(F)F)n2)cc1 [Compound 1571] | 0.01 to 10 |  | EC50 [4]: 0.05 nM |
| O=C(N[C@H](CCNC(=O)c1ccc(Nc2nc(NC3(c4ccc(Cl)cc4)CC3)nc(OCC(F)(F)F)n2)cc1)C(=O)O)C(=O)N1CCc2ccccc2C1 [Compound 3495] |  | 0.01 to 10 |  |
| O=C(NCC[C@H](NC(=O)c1ccc(Nc2nc(NC3(c4ccc(Cl)cc4)CC3)nc(OCC(F)(F)F)n2)cc1)C(=O)O)C(=O)Nc1cc(F)c(F)cc1F [Compound 1514] | 0.01 to 10 |  | EC50 [4]: 0.04 nM |
| COC(=O)[C@@H](CCNC(=O)C(=O)Nc1cccc(Oc2ccccc2)c1)NC(=O)c1ccc(Nc2nc(NC3(c4ccc(Cl)cc4)CC3)nc(OCC(F)(F)F)n2)cc1 [Compound 3578] |  | 0.01 to 10 |  |
| CC(=O)c1ccccc1NC(=O)C(=O)NCC(C)(C)CNC(=O)c1ccc(Nc2nc(NC3(c4ccc(Cl)cc4)CC3)nc(OCC(F)(F)F)n2)cc1 [Compound 3377] |  | 0.01 to 10 |  |
| COC(=O)[C@H](CNC(=O)C(=O)N[C@H]1C[C@@H]2C[C@@H]([C@@H]1C)C2(C)C)NC(=O)c1ccc(Nc2nc(NC3(c4ccc(Cl)cc4)CC3)nc(OCC(F)(F)F)n2)cc1 [Compound 1066] | 0.01 to 10 |  |  |
| Cc1ccccc1-c1ccc(NC(=O)C(=O)NC[C@H](NC(=O)c2ccc(Nc3nc(NC4(c5ccc(Cl)cc5)CC4)nc(OCC(F)(F)F)n3)cc2)C(=O)O)cc1 [Compound 3272] |  | 0.01 to 10 |  |
| O=C(NC[C@H]1CCC[C@H]1NC(=O)c1ccc(Nc2nc(NC3(c4ccc(Cl)cc4)CC3)nc(OCC(F)(F)F)n2)cc1)C(=O)Nc1ccc(F)cc1 [Compound 1474] | 0.01 to 10 |  |  |
| O=C(NCC[C@H](NC(=O)c1ccc(Nc2nc(NC3(c4ccc(Cl)cc4)CC3)nc(OCC(F)(F)F)n2)cc1)C(=O)O)C(=O)Nc1ccc(-n2cncn2)cc1 [Compound 3231] |  | 0.01 to 10 |  |
| COC(=O)[C@H](CCNC(=O)C(=O)Nc1cccc(-c2noc(C)n2)c1)NC(=O)c1ccc(Nc2nc(NC3(c4ccc(Cl)cc4)CC3)nc(OCC(F)(F)F)n2)cc1 [Compound 3606] |  |  | EC50 [2]: 0.01 to 10 nM |

| Structure (SMILES) | EC50 [1] [nM] | EC50 [3] [nM] | other results |
| --- | --- | --- | --- |
| CNC(=O)CCc1ccc(NC(=O)C(=O)NCC(C)(C)CNC(=O)c2ccc(Nc3nc(NC4(c5ccc(Cl)cc5)CC4)nc(OCC(F)(F)F)n3)cc2)cc1 [Compound 3025] |  | 0.01 to 10 |  |
| COC(=O)[C@H](CCNC(=O)C(=O)NNc1ccccc1)NC(=O)c1ccc(Nc2nc(NC3(c4ccc(Cl)cc4)CC3)nc(OCC(F)(F)F)n2)cc1 [Compound 1220] | 0.01 to 10 |  |  |
| CC(C)CNC(=O)C(=O)NC(C)(C)CNC(=O)c1ccc(Nc2nc(NC3(c4ccc(Cl)cc4)CC3)nc(OCC(F)(F)F)n2)cc1 [Compound 3442] |  | 0.01 to 10 |  |
| COC(=O)[C@H](CCNC(=O)C(=O)Nc1ccc(CCCl)cc1)NC(=O)c1ccc(Nc2nc(NC3(c4ccc(Cl)cc4)CC3)nc(OCC(F)(F)F)n2)cc1 [Compound 3115] |  | 0.01 to 10 |  |
| CCC(CC)NC(=O)C(=O)NC[C@H](NC(=O)c1ccc(Nc2nc(NC3(c4ccc(Cl)cc4)CC3)nc(OCC(F)(F)F)n2)cc1)C(=O)O [Compound 1091] | 0.01 to 10 |  |  |
| COC(=O)[C@H](CCNC(=O)C(=O)NCC(C)c1ccccc1)NC(=O)c1ccc(Nc2nc(NC3(c4ccc(Cl)cc4)CC3)nc(OCC(F)(F)F)n2)cc1 (stereo partly drawn) [Compound 1307] | 0.01 to 10 |  | EC50 [4]: 0.38 nM |
| CCC1(CC)CC1CNC(=O)C(=O)NCC[C@H](NC(=O)c1ccc(Nc2nc(NC3(c4ccc(Cl)cc4)CC3)nc(OCC(F)(F)F)n2)cc1)C(=O)OC (stereo partly drawn) [Compound 1199] | 0.01 to 10 |  | EC50 [4]: 0.19 nM |
| COC(=O)[C@H](CCNC(=O)C(=O)N(C)c1ccccc1)NC(=O)c1ccc(Nc2nc(NC3(c4ccc(Cl)cc4)CC3)nc(OCC(F)(F)F)n2)cc1 [Compound 1235] | 0.01 to 10 |  | EC50 [4]: 0.53 nM |
| COC(=O)[C@@H](CCNC(=O)C(=O)NCC1(c2ccccc2)CC1)NC(=O)c1ccc(Nc2nc(NC3(c4ccc(Cl)cc4)CC3)nc(OCC(F)(F)F)n2)cc1 [Compound 1378] | 0.01 to 10 |  | EC50 [4]: 0.23 nM |
| CCOCCOc1ccc(NC(=O)C(=O)NCC[C@H](NC(=O)c2ccc(Nc3nc(NC4(c5ccc(Cl)cc5)CC4)nc(OCC(F)(F)F)n3)cc2)C(=O)OC)cc1 [Compound 3309] |  | 0.01 to 10 |  |
| COC(=O)[C@H](CNC(=O)C(=O)Nc1cccc(C(F)(F)F)c1)NC(=O)c1ccc(Nc2nc(NC3(c4ccc(Cl)cc4)CC3)nc(OCC(F)(F)F)n2)cc1 [Compound 1251] | 0.01 to 10 |  |  |
| CC(C)(CNC(=O)C(=O)Nc1ccon1)CNC(=O)c1ccc(Nc2nc(NC3(c4ccc(Cl)cc4)CC3)nc(OCC(F)(F)F)n2)cc1 [Compound 3040] |  | 0.01 to 10 |  |
| CC(C)(CNC(=O)C(=O)Nc1ccc(F)cc1Cl)CNC(=O)c1ccc(Nc2nc(NC3(c4ccc(Cl)cc4)CC3)nc(OCC(F)(F)F)n2)cc1 [Compound 3405] |  | 0.01 to 10 |  |
| Nc1ccc(NC(=O)C(=O)NC[C@H](NC(=O)c2ccc(Nc3nc(NC4(c5ccc(Cl)cc5)CC4)nc(OCC(F)(F)F)n3)cc2)C(=O)O)nc1 [Compound 3761] |  |  | EC50 [2]: 0.01 to 10 nM |
| CC(C)(CNC(=O)c1ccc(Nc2nc(NC3(c4ccc(Cl)cc4)CC3)nc(OCC(F)(F)F)n2)cc1)NC(=O)C(=O)N1CCc2ccccc2C1 [Compound 3440] |  | 0.01 to 10 |  |
| CC(C)CNC(=O)C(=O)N(CCO)CCCNC(=O)c1ccc(Nc2nc(NC3(c4ccc(Cl)cc4)CC3)nc(OCC(F)(F)F)n2)cc1 [Compound 3505] |  | 0.01 to 10 |  |
| CC(C)CNC(=O)C(=O)N(C)CCCN(C)C(=O)c1ccc(Nc2nc(NC3(c4ccc(Cl)cc4)CC3)nc(OCC(F)(F)F)n2)cc1 [Compound 3431] |  | 0.01 to 10 |  |
| COC(=O)[C@H](CNC(=O)C(=O)NC1CCC(C(C)(C)C)CC1)NC(=O)c1ccc(Nc2nc(NC3(c4ccc(Cl)cc4)CC3)nc(OCC(F)(F)F)n2)cc1 (stereo partly drawn) [Compound 1062] | 0.01 to 10 |  |  |
| Cc1cc(Cl)ccc1NC(=O)C(=O)NCC(C)(C)CNC(=O)c1ccc(Nc2nc(NC3(c4ccc(Cl)cc4)CC3)nc(OCC(F)(F)F)n2)cc1 [Compound 3057] |  | 0.01 to 10 |  |
| Cc1ccc(NC(=O)C(=O)N2CCCC(CNC(=O)c3ccc(Nc4nc(NC5(c6ccc(Cl)cc6)CC5)nc(OCC(F)(F)F)n4)cc3)C2)cc1 (stereo not drawn) [Compound 3481] |  | 0.01 to 10 | EC50 [5]: 0.065 nM |
| CC(C)(CNC(=O)C(=O)NC1(c2ccc(F)cc2)CC1)CNC(=O)c1ccc(Nc2nc(NC3(c4ccc(Cl)cc4)CC3)nc(OCC(F)(F)F)n2)cc1 [Compound 3013] |  | 0.01 to 10 | EC50 [5]: 0.066 nM |
| CCc1ccnn1CC1(CNC(=O)C(=O)NCC[C@H](NC(=O)c2ccc(Nc3nc(NC4(c5ccc(Cl)cc5)CC4)nc(OCC(F)(F)F)n3)cc2)C(=O)O)CC1 [Compound 1430] | 0.01 to 10 |  |  |
| CCN(CC)CCOc1cccc(NC(=O)C(=O)NC[C@H](NC(=O)c2ccc(Nc3nc(NC4(c5ccc(Cl)cc5)CC4)nc(OCC(F)(F)F)n3)cc2)C(=O)OC)c1 [Compound 3733] |  |  | EC50 [2]: 0.01 to 10 nM |
